Source: article PMC9646841, “A bead-based GPCR phosphorylation immunoassay for high-throughput ligand profiling and GRK inhibitor screening” (Communications Biology, 2022)
“And” between values parts separate entries of the source, which are not always exact repeats. Equal entries are not always repeated. Square brackets hold non-standard residues; d marks the D form. Peptide text beside a SMILES is read from it. Cha = N[C@@H](CC1CCCCC1)C(=O)O; dCha = N[C@H](CC1CCCCC1)C(=O)O

Assays:
Assay type in all cases: cell-based
C5a1 [1] = molecular target: T1, C5a1 (Homo sapiens, UniProt P21730); assay: pS332/pS334-C5a1 7TM phosphorylation assay; conditions: for Emax: read-out: Emax (% Control C028) pS332/pS334-C5a1
T1 construct: host or cells: Control-HEK293, ΔGRK2/3-HEK293, ΔGRK5/6-HEK293, stably expressing
T1 sequence (P21730 1-350): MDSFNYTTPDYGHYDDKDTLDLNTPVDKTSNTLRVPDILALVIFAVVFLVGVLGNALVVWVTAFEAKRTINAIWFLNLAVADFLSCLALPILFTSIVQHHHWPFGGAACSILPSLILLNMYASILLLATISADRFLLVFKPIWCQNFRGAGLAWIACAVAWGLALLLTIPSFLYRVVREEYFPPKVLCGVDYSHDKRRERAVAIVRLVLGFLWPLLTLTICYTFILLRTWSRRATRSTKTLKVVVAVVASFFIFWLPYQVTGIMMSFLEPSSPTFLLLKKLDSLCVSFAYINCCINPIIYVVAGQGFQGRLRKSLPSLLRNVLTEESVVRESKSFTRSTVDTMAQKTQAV

C5a1 [2] = molecular target: T1, C5a1; assay: pS338/pT339-C5a1 7TM phosphorylation assay; conditions: for Emax: read-out: Emax (% Control C028) pS338/pT339-C5a1
C5a1 [3] = molecular target: T1, C5a1; assay: pT324/pS327-C5a1 7TM phosphorylation assay; conditions: for Emax: read-out: Emax (% Control C028) pT324/pS327-C5a1
[4] = C028 0.01 µM, Control-C5aR1-HEK293
[5] = C028 0.01 µM, ΔGRK2/3-C5aR1-HEK293
[6] = C028 0.01 µM, ΔGRK5/6-C5aR1-HEK293
[7] = C028 0.1 µM, ΔGRK5/6-C5aR1-HEK293
[8] = C028 3 µM, Control-C5aR1-HEK293
[9] = C028 10 µM, ΔGRK5/6-C5aR1-HEK293, concentration series
[10] = Control-C5aR1-HEK293, C028 3 µM
[11] = ΔGRK2/3-C5aR1-HEK293, C028 0.01 µM
[12] = ΔGRK2/3-C5aR1-HEK293, C028 0.3 µM
[13] = ΔGRK2/3-C5aR1-HEK293, C028 10 µM (concentration series)
[14] = ΔGRK5/6-C5aR1-HEK293, C028 0.01 µM
[15] = ΔGRK5/6-C5aR1-HEK293, C028 0.1 µM

SMILES: N=C(N)NCCC[C@@H](NC(=O)[C@H](CC1CCCCC1)NC(=O)[C@@H](CC1CCCCC1)NC(=O)[C@@H]1CCCN1C(=O)[C@H](CCCCN)NC(=O)[C@@H](N)Cc1ccccc1)C(=O)O [C028, FKP-(D-Cha)-Cha-r] (H-FKP[dCha][Cha][dR]-OH)
- pS332/pS334 (raw signal) (C5a1 [1]; ΔGRK2/3-C5aR1-HEK293, C028 0.01 µM, concentration series): 0.1764 and 0.1748 and 0.1484 and 0.1388 and 0.1181 and 0.1479 and 0.1441
- pS332/pS334 (raw signal) (C5a1 [1]; ΔGRK2/3-C5aR1-HEK293, C028 1 µM, concentration series): 0.699 and 0.3955 and 0.6071 and 0.387 and 0.4065 and 0.4411 and 0.6614 and 0.6847
- pS332/pS334 (raw signal) (C5a1 [1]; ΔGRK2/3-C5aR1-HEK293, C028 10 µM, first 0/10 µM column pair): 0.4715 and 0.6645 and 0.5267 and 0.3753 and 0.6914 and 0.6912 and 0.5711 and 0.6282
- Emax (C5a1 [1]; ΔGRK2/3-HEK293): 70.2%
- Emax (C5a1 [1]; ΔGRK5/6-HEK293): 50.8%
- OD405 max pS338/pT339-C5a1 (C5a1 [2]): 0.97
- OD405 min pS338/pT339-C5a1 (C5a1 [2]): 0.05
- pS338/pS339 normalized (C5a1 [2]; [4]): 0.99% and 0.92% and 2.21% and 3.33% and 1.14% and 2.13% and -1.29% and -0.74%
- pS338/pS339 signal, raw (C5a1 [2]; [4]): 0.1155 and 0.1223 and 0.1459 and 0.1501 and 0.1235 and 0.1345 and 0.146 and 0.1476
- pS338/pS339 normalized (C5a1 [2]; [5]): 2.29% and 0.59% and -0.76% and -0.97% and -2.55% and -1.82% and -0.06% and 0.89%
- pS338/pS339 signal, raw (C5a1 [2]; [5]): 0.0952 and 0.0932 and 0.1355 and 0.1425 and 0.1714 and 0.1765 and 0.119 and 0.1119
- pS338/pS339 normalized (C5a1 [2]; [6]): -0.52% and 1.83% and 5.79% and 7.02% and 0.41% and 6.78% and -2.15% and -0.66%
- pS338/pS339 signal, raw (C5a1 [2]; [6]): 0.1914 and 0.1791 and 0.1104 and 0.1268 and 0.0959 and 0.1124 and 0.1275 and 0.1571
- pS338/pS339 signal, raw (C5a1 [2]; C028 0.1 µM, Control-C5aR1-HEK293): 0.1875 and 0.2099 and 0.2083 and 0.1715 and 0.263 and 0.2723 and 0.28 and 0.2721
- pS338/pS339 normalized (C5a1 [2]; C028 0.1 µM, ΔGRK2/3-C5aR1-HEK293): 4.55% and 4.75% and 2.09% and -0.74% and 0.95% and 1.57% and 2.54% and 3.37%
- pS338/pS339 normalized (C5a1 [2]; [7]): 6.77% and 12.22% and 6.57% and 4.14% and 6.71% and 9.50% and 2.76% and 5.82%
- pS338/pS339 signal, raw (C5a1 [2]; [7]): 0.1912 and 0.1825 and 0.1703 and 0.1709 and 0.1421 and 0.1595 and 0.2215 and 0.2673
- pS338/pS339 normalized (C5a1 [2]; [8]): 78.61% and 86.74% and 85.12% and 75.44% and 123.11% and 90.88% and 72.00% and 99.45%
- pS338/pS339 signal, raw (C5a1 [2]; [8]): 0.8634 and 0.695 and 1.1554 and 0.7958 and 0.9051 and 1.0337 and 0.9787 and 0.9442
- pS338/pS339 normalized (C5a1 [2]; C028 10 µM, Control-C5aR1-HEK293, concentration series): 92.58% and 105.20% and 87.15% and 107.72% and 114.82% and 97.73% and 96.48% and 106.05%
- pS338/pS339 signal, raw (C5a1 [2]; C028 10 µM, Control-C5aR1-HEK293, last 0/10 µM pair of Control block): 0.8171 and 0.9223 and 0.6743 and 0.8573 and 1.0399 and 1.1081
- pS338/pS339 signal, raw (C5a1 [2]; C028 10 µM, Control-C5aR1-HEK293 beside ΔGRK5/6 block): 1.1983 and 1.0585 and 0.7547 and 0.8921 and 1.3122 and 1.2783 and 1.4177 and 1.3015
- pS338/pS339 normalized (C5a1 [2]; [9]): 60.81% and 85.60% and 54.29% and 47.10% and 52.27% and 73.34% and 65.73% and 72.42%
- pS338/pS339 signal, raw (C5a1 [2]; [9]): 0.6953 and 0.6053 and 0.6054 and 0.6811 and 0.925 and 0.7569 and 1.0104 and 1.1456
- Emax (C5a1 [2]; Control-HEK293): 100%
- EC50 (C5a1 [2]; pEC50 pS338/pT339-C5a1, Control-HEK293): 631 nM
- EC50 (C5a1 [2]; pEC50 pS338/pT339-C5a1, ΔGRK2/3-HEK293): 1000 nM
- Emax (C5a1 [2]; ΔGRK2/3-HEK293): 55.2%
- Emax (C5a1 [2]; ΔGRK5/6-HEK293): 63.9%
- OD405 max pT324/pS327-C5a1 (C5a1 [3]): 1.26
- OD405 min pT324/pS327-C5a1 (C5a1 [3]): 0.01
- pT324/pS327 phosphorylation, normalized (C5a1 [3]; Control-C5aR1-HEK293, C028 0.01 µM): 6.54% and 2.09% and 2.38% and -0.26% and 4.73% and 4.23% and 0.13% and 0.29%
- pT324/pS327-C5aR1 Phosphorylation Assay, raw signal (C5a1 [3]; Control-C5aR1-HEK293, C028 0.1 µM): 0.2603 and 0.2849 and 0.4452 and 0.4009 and 0.2355 and 0.392 and 0.2309 and 0.3621
- pT324/pS327-C5aR1 Phosphorylation Assay, raw signal (C5a1 [3]; [10]): 0.8349 and 0.7369 and 1.3757 and 1.2873 and 1.162 and 1.2785 and 0.8805 and 0.8562
- pT324/pS327 phosphorylation, normalized (C5a1 [3]; [10]): 120.88% and 95.08% and 81.14% and 86.44% and 112.69% and 137.00% and 71.21% and 88.89%
- pT324/pS327 phosphorylation, normalized (C5a1 [3]; Control-C5aR1-HEK293, C028 10 µM (concentration series)): 119.78% and 104.86% and 86.39% and 115.09% and 117.11% and 104.93% and 106.33% and 104.22%
- Emax (C5a1 [3]; Control-HEK293): 100%
- EC50 (C5a1 [3]; pEC50 pT324/pS327-C5a1, Control-HEK293): 501 nM
- EC50 (C5a1 [3]; pEC50 pT324/pS327-C5a1, ΔGRK2/3-HEK293): 631 nM
- pT324/pS327-C5aR1 Phosphorylation Assay, raw signal (C5a1 [3]; [11]): 0.1906 and 0.2011 and 0.1388 and 0.1623 and 0.1923 and 0.1741 and 0.2414 and 0.2236
- pT324/pS327 phosphorylation, normalized (C5a1 [3]; [11]): 5.63% and 2.70% and -1.25% and 2.28% and 0.48% and 3.13% and 6.18% and 3.90%
- pT324/pS327-C5aR1 Phosphorylation Assay, raw signal (C5a1 [3]; ΔGRK2/3-C5aR1-HEK293, C028 0.1 µM): 0.3121 and 0.3742 and 0.1921 and 0.224 and 0.2885 and 0.3186 and 0.3064
- pT324/pS327-C5aR1 Phosphorylation Assay, raw signal (C5a1 [3]; [12]): 0.5648 and 0.5979 and 0.3035 and 0.3146 and 0.4385 and 0.4523 and 0.4291 and 0.4848
- pT324/pS327 phosphorylation, normalized (C5a1 [3]; [12]): 24.79% and 33.69% and 32.00% and 35.01% and 19.88% and 27.63% and 33.40% and 34.58%
- pT324/pS327 phosphorylation, normalized (C5a1 [3]; ΔGRK2/3-C5aR1-HEK293, C028 1 µM): 57.50% and 41.29% and 46.21% and 58.02% and 41.79% and 38.21% and 68.95% and 53.84%
- pT324/pS327-C5aR1 Phosphorylation Assay, raw signal (C5a1 [3]; ΔGRK2/3-C5aR1-HEK293, C028 3 µM): 0.9175 and 0.9435 and 0.5986 and 0.5479 and 0.9015 and 0.9692 and 0.812 and 0.8433
- pT324/pS327-C5aR1 Phosphorylation Assay, raw signal (C5a1 [3]; [13]): 0.9308 and 0.9846 and 0.7517 and 0.6067 and 1.0697 and 0.9407 and 1.15 and 0.9163
- pT324/pS327 phosphorylation, normalized (C5a1 [3]; [13]): 96.12% and 84.19% and 64.50% and 63.55% and 84.08% and 59.71% and 82.71% and 58.42%
- Emax (C5a1 [3]; ΔGRK2/3-HEK293): 79.8%
- pT324/pS327-C5aR1 Phosphorylation Assay, raw signal (C5a1 [3]; [14]): 0.1198 and 0.124 and 0.1546 and 0.0999 and 0.1081 and 0.164 and 0.1821
- pT324/pS327 phosphorylation, normalized (C5a1 [3]; [14]): -1.74% and -1.49% and 1.46% and 0.52% and 6.96% and 2.95% and -0.44% and 0.0738%
- pT324/pS327-C5aR1 Phosphorylation Assay, raw signal (C5a1 [3]; [15]): 0.1319 and 0.1326 and 0.1302 and 0.1434 and 0.1164 and 0.1306 and 0.173 and 0.1664
- pT324/pS327 phosphorylation, normalized (C5a1 [3]; [15]): -0.96% and 0.29% and 1.64% and 0.38% and 2.18% and 3.49% and 1.29% and 7.61%
- pT324/pS327-C5aR1 Phosphorylation Assay, raw signal (C5a1 [3]; ΔGRK5/6-C5aR1-HEK293, C028 0.3 µM): 0.1652 and 0.1629 and 0.1483 and 0.1906 and 0.1747 and 0.2126 and 0.1807
- Emax (C5a1 [3]; ΔGRK5/6-HEK293): 27.8%
